Assay results published in doi:10.1101/2025.05.09.652710v1 (bioRxiv, 2025).

Legend:
[1] = target: T1, HGFA (Homo sapiens, UniProt Q04756); experiment: Fluorogenic kinetic enzyme inhibitor assay, HGFA; assay type: biochemical
T1 sequence (Q04756 373-655): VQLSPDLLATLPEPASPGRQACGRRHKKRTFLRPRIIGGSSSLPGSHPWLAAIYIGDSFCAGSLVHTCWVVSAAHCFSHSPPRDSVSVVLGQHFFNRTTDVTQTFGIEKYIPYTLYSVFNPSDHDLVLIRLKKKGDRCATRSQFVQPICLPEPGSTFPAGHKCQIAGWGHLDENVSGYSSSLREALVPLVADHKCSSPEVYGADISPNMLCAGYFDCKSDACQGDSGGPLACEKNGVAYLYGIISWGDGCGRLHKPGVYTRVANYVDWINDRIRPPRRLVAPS

[2] = target: Factor Xa (Homo sapiens, UniProt P00742); experiment: Chromogenic kinetic enzyme assay, Factor Xa; assay type: biochemical
[3] = target: hepsin (Homo sapiens, UniProt P05981); experiment: Fluorogenic kinetic enzyme inhibitor assay, hepsin; assay type: biochemical
[4] = target: T2, matriptase (Homo sapiens, UniProt Q9Y5Y6); experiment: Fluorogenic kinetic enzyme inhibitor assay, matriptase; assay type: biochemical
T2 sequence (Q9Y5Y6 615-855): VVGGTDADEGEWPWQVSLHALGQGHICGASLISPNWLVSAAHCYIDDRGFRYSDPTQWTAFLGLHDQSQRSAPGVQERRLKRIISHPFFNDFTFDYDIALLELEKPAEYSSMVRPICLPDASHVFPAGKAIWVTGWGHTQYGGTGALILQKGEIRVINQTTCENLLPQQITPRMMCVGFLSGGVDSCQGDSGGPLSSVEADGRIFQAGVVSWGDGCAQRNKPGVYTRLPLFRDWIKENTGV

[5] = target: thrombin (Homo sapiens, UniProt P00734); experiment: Chromogenic kinetic enzyme assay, thrombin; assay type: biochemical
[6] = test system: chimeric VSV SARS-CoV-2 virus; conditions: chimeric VSV virus
[7] = target: TMPRSS2 (Homo sapiens, UniProt O15393, Q253D/R252D/R255K/S251D/S254D); experiment: Fluorogenic kinetic enzyme inhibitor assay, TMPRSS2; assay type: biochemical
[8] = test system: influenza A virus strain A/California/4/2009 (pdmH1N1); conditions: for H1N1 titer Log fold reduction (1 μM): virus strain A/California/4/2009 (pdmH1N1, 72 h, 1 μM); for H1N1 titer Log fold reduction (10 μM): virus strain A/California/4/2009 (pdmH1N1, 72 h, 10 μM)

Chain of TMPRSS2 (O15393 109-492 S251D/R252D/Q253D/S254D/R255K limits assumed): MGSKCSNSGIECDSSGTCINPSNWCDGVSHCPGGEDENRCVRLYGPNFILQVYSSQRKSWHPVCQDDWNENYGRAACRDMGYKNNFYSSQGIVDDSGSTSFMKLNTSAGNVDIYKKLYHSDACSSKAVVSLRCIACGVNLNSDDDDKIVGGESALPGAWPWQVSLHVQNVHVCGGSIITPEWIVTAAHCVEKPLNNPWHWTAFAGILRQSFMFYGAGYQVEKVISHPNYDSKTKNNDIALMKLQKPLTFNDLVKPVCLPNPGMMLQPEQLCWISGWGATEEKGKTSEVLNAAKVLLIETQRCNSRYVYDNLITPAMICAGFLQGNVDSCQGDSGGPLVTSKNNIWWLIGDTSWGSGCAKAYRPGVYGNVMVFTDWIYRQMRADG
Chain of Factor Xa (P00742 235-488 limits assumed): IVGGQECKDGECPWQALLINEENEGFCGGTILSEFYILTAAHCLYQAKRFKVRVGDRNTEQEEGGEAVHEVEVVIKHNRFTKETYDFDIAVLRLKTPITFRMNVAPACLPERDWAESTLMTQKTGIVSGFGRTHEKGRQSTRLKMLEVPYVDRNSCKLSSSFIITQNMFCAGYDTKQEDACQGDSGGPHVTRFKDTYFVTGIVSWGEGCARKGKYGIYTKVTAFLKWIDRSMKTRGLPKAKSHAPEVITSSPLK
Chain of Factor Xa (P00742 41-179 partner limits assumed): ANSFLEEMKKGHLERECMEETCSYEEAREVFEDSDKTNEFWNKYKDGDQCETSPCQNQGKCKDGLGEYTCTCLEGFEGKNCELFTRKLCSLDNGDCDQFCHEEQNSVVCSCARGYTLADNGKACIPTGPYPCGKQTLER
Chain of hepsin (P05981 163-417 limits assumed): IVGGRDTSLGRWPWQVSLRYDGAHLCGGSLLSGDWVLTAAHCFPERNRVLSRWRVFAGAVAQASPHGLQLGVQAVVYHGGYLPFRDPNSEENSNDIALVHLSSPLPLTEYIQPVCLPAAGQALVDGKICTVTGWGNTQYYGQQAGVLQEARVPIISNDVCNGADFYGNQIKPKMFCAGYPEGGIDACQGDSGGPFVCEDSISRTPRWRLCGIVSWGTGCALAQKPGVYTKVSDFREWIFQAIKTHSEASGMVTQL
Chain of hepsin (P05981 45-162 partner limits assumed): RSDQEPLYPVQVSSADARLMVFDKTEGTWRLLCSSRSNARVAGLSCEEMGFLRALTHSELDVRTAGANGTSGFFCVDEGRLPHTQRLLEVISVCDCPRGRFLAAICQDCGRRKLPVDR

CC[C@H](C)[C@H](NC(C)=O)C(=O)N[C@@H](CCC(N)=O)C(=O)N[C@@H](Cc1ccccc1)C(=O)N[C@@H](CCCNC(=N)N)C(=O)c1nc2ccccc2s1 [MM3116, Ac-IQFR-kbt]
IC50 [1]: 30 nM
IC50 [2]: 792 nM
IC50 [3]: 0.14 nM
IC50 [4]: 0.92 nM
IC50 [5]: > 20000 nM
EC50 [6]: 3.6 nM
IC50 [7]: 1.7 nM

CC[C@H](C)[C@H](NC(C)=O)C(=O)N[C@@H](CCC(N)=O)C(=O)N[C@@H](CO)C(=O)N[C@@H](CCCNC(=N)N)C(=O)c1nc2ccccc2s1 [MM3177, Ac-IQSR-kbt]
IC50 [1]: 19900 nM
IC50 [2]: 1730 nM
IC50 [3]: 2.4 nM
IC50 [4]: 1.3 nM
IC50 [5]: > 20000 nM
EC50 [6]: 36 nM
IC50 [7]: 4.5 nM

CC[C@H](C)[C@H](NC(C)=O)C(=O)N[C@@H](CCC(N)=O)C(=O)N[C@@H](C)C(=O)N[C@@H](CCCNC(=N)N)C(=O)c1nc2ccccc2s1 [MM3178, Ac-IQAR-kbt]
IC50 [1]: > 20000 nM
IC50 [2]: 170 nM
IC50 [3]: 1.3 nM
H1N1 Fold inhibition @ 0.1 μM [8]: 2
H1N1 Fold inhibition @ 1 μM [8]: 91
H1N1 Fold inhibition @ 10 μM [8]: 238
H1N1 titer Log fold reduction (1 μM) [8]: 2.0
H1N1 titer Log fold reduction (10 μM) [8]: 2.4
IC50 [4]: 0.1 nM
IC50 [5]: > 20000 nM
EC50 [6]: 11 nM
IC50 [7]: 0.23 nM

CC[C@H](C)[C@H](NC(C)=O)C(=O)N[C@@H](CCC(N)=O)C(=O)N[C@H](C(=O)N[C@H](CCCNC(=N)N)C(=O)c1nc2ccccc2s1)C(C)C [MM3180-1, Ac-IQVdR-kbt]
IC50 [1]: 14600 nM
IC50 [2]: > 20000 nM
IC50 [3]: 1.72 nM
IC50 [4]: 22.9 nM
IC50 [5]: > 20000 nM
IC50 [7]: 2.89 nM

CC[C@H](C)[C@H](NC(C)=O)C(=O)N[C@@H](CCC(N)=O)C(=O)N[C@H](C(=O)N[C@@H](CCCNC(=N)N)C(=O)c1nc2ccccc2s1)[C@@H](C)O [MM3186, Ac-IQTR-kbt]
IC50 [1]: 18400 nM
IC50 [2]: > 20000 nM
IC50 [3]: 0.98 nM
IC50 [4]: 16 nM
IC50 [5]: > 20000 nM
EC50 [6]: 19 nM
IC50 [7]: 0.17 nM

CC[C@H](C)[C@H](NC(C)=O)C(=O)N[C@@H](CCC(N)=O)C(=O)N[C@@H](Cc1c[nH]c2ccccc12)C(=O)N[C@@H](CCCNC(=N)N)C(=O)c1nc2ccccc2s1 [MM3187, Ac-IQWR-kbt]
IC50 [1]: 1450 nM
IC50 [2]: 129 nM
IC50 [3]: 0.32 nM
IC50 [4]: 1.2 nM
IC50 [5]: > 20000 nM
EC50 [6]: 22 nM
IC50 [7]: 2.2 nM

CC[C@H](C)[C@H](NC(C)=O)C(=O)N[C@H](Cc1c[nH]c2ccccc12)C(=O)N[C@@H](Cc1ccccc1)C(=O)N[C@@H](CCCNC(=N)N)C(=O)c1nc2ccccc2s1 [MM4038, Ac-IdWFR-kbt]
IC50 [1]: 66 nM
IC50 [3]: 12 nM
H1N1 titer Log fold reduction (1 μM) [8]: 2.1
H1N1 titer Log fold reduction (10 μM) [8]: 3.0
IC50 [4]: 25 nM
IC50 [5]: > 20000 nM
EC50 [6]: 226 nM
IC50 [7]: 0.04 nM
